What is called IC50 is the concentration at which inhibition is half-maximal.

Where two headings read alike, the source gives them in different places.

In US8536168B2 (Novartis AG, priority 2007, dated 2013) one finds IC50 data, which are given here for 28 compounds.

Assay [1] deals with human Smoothened receptor (Homo sapiens, UniProt Q99835). Kind of assay: Smo binding assay, displacement of radio-labeled smoothened agonist, filter binding format (human). The note with it: displacement of small molecule agonist of Smoothened, read-out: Human Smo bdg., IC50. The source says:
A Smo binding assay was developed using radio-labeled smoothened agonist for compound competition. Table 9 lists the IC50 for displacement of a small molecule agonist of Smoothened determined in a filter binding format for the mouse and human Smoothened receptor.

The target of assay [2] is mouse Smoothened receptor (Mus musculus, UniProt P56726). Kind of assay: Smo binding assay, displacement of radio-labeled smoothened agonist, filter binding format (mouse). The note with it: displacement of small molecule agonist of Smoothened, read-out: Mouse Smo bdg., IC50. An excerpt: A Smo binding assay was developed using radio-labeled smoothened agonist for compound competition.

In the next assay the test system is Gli-luciferase activity. Kind of assay: Reporter gene assay (RGA) in TMHh12 cells, antagonism of Gli-luciferase activity in the presence of a Smo agonist. The assay is classed as cell-based. How it is done:
Activity of the compounds was evaluated using a reporter gene assay (RGA) in TMHh12 cells.

Where [3] appears, read: 25 nM small molecule Smo agonist, read-out: RGA (25 nM Smo agonist) IC50.
Where [4] appears, read: read-out: RGA (1 nM Smo agonist) IC50, 1 nM small molecule Smo agonist.

Sequence of human Smoothened receptor (Q99835 28-787): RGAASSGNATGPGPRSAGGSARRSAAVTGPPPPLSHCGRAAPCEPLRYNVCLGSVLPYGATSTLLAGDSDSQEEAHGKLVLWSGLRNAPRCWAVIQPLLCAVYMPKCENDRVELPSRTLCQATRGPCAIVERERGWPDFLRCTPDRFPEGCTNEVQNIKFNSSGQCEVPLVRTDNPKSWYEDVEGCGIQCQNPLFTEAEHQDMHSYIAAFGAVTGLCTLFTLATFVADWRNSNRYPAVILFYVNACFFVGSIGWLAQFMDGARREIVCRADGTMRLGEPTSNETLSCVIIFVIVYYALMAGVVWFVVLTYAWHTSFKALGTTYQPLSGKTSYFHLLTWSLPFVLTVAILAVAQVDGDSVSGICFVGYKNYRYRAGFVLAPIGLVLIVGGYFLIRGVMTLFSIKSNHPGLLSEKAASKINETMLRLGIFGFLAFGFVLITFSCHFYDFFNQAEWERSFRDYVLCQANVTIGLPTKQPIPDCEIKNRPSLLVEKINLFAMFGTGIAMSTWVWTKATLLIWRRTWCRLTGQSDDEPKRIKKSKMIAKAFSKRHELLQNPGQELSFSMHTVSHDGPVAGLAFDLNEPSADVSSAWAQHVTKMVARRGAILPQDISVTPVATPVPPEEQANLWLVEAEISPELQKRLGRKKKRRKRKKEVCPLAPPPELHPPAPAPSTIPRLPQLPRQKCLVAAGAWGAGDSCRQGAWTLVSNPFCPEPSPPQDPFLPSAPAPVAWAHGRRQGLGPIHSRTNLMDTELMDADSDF
Sequence of mouse Smoothened receptor (P56726 33-793): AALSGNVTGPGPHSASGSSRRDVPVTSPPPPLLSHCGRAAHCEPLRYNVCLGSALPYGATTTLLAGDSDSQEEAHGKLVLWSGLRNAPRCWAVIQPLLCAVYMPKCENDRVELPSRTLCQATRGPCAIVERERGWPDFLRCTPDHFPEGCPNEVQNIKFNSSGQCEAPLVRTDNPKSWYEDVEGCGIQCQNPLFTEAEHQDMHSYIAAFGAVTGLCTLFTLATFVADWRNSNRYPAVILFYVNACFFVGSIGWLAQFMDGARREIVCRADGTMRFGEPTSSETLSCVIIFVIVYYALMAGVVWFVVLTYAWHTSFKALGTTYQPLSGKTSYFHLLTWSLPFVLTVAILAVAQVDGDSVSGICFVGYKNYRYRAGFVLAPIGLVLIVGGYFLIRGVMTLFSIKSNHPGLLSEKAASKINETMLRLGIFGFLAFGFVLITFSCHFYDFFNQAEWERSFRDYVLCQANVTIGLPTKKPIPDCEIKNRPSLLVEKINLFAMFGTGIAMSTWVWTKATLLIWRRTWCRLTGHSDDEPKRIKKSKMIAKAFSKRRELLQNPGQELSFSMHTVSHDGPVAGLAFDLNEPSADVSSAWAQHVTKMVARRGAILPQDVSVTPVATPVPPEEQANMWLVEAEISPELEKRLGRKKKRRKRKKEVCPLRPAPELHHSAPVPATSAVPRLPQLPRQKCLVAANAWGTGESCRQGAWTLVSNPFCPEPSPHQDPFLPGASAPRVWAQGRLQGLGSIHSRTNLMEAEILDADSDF

`Cc1cc(Cc2ccc(F)cc2)nnc1N1CCN(c2ccc(C#N)cn2)CC1` [Example 84]: the IC50 in assay [1] is 100 to 1000 nM; in assay [2], 100 to 1000 nM; with Gli-luciferase activity (setting [3]), 1000 to 10000 nM; with Gli-luciferase activity (setting [4]), < 100 nM.

Regarding `Cc1cc(N2CCN(c3ccc(C#N)cn3)CC2)nnc1Cc1ccc(F)cc1` [Example 85], the IC50 (in assay [1]; in assay [2]; in the assay on Gli-luciferase activity (setting [4])) was 100 to 1000 nM throughout.

Turning to `Cc1cc(Cc2ccccc2)nnc1N1CCN(c2ccc(C#N)cn2)CC1` [Example 86], the IC50 in assay [1] lay within 1000 to 10000 nM; in assay [2], 1000 to 10000 nM; in the assay with Gli-luciferase activity (setting [3]), 1000 to 10000 nM; in the assay with Gli-luciferase activity (setting [4]) it was 100 to 1000 nM.

`Cc1cc(N2CCN(c3ccc(C#N)cn3)CC2)nnc1Cc1ccccc1` [Example 87]: the IC50 (in assay [1]; in assay [2]; in the assay on Gli-luciferase activity (setting [4])) was 100 to 1000 nM each time.

For `Cc1cc(Cc2ccccc2)nnc1N1CCN(c2ccc(C(F)(F)F)cn2)CC1` [Example 88], the half-inhibitory concentration (IC50) in assay [1] is 100 to 1000 nM; in assay [2], 100 to 1000 nM; with Gli-luciferase activity (setting [3]), 1000 to 10000 nM; in the assay with Gli-luciferase activity (setting [4]), < 100 nM.

In the case of `Cc1cc(N2CCN(c3ccc(C(F)(F)F)cn3)CC2)nnc1Cc1ccccc1` [Example 89], the IC50 in assay [1] is < 100 nM; in assay [2], < 100 nM; in the assay with Gli-luciferase activity (setting [4]), 100 to 1000 nM.

In the case of `Cc1cc(Cc2ccc(F)cc2)nnc1N1CCN(c2ccc(C(F)(F)F)cn2)CC1` [Example 90], the IC50 in assay [1] is < 100 nM; in assay [2], < 100 nM; in the assay with Gli-luciferase activity (setting [3]) it was 1000 to 10000 nM; in the assay with Gli-luciferase activity (setting [4]), < 100 nM.

Take `Cc1cc(Cc2ccc(Cl)cc2)nnc1N1CCN(c2ccc(C#N)cn2)CC1` [Example 92]: the IC50 in assay [1] fell in the range of 100 to 1000 nM; in assay [2], 100 to 1000 nM; in the assay on Gli-luciferase activity (setting [3]), 1000 to 10000 nM; in the assay on Gli-luciferase activity (setting [4]) it was 100 to 1000 nM.

`N#Cc1ccc(N2CCN(c3nnc(Cc4ccc(F)cc4)c4c3CCCC4)CC2)nc1` [Example 93b]: the 50% inhibitory concentration (IC50) (in assay [1]; in assay [2]; with Gli-luciferase activity (setting [3]); in the assay with Gli-luciferase activity (setting [4])) was 100 to 1000 nM in each case.

Turning to `N#Cc1ccc(N2CCN(c3nnc(Cc4ccc(F)cc4)c4c3CCC4)CC2)nc1` [Example 93c, 6-{4-[4-(4-Fluoro-benzyl)-6,7-dihydro-5H-cyclopenta[d]pyridazin-1-yl]-piperazin-1-yl}-nicotinonitrile], the half-inhibitory concentration (IC50) is < 100 nM in assay [1], < 100 nM in assay [2], 100 to 1000 nM with Gli-luciferase activity (setting [3]) and < 100 nM with Gli-luciferase activity (setting [4]).

As to `N#Cc1cccc(C(=O)N2CCC(c3cn(Cc4ccc(F)cc4)c4ccccc34)CC2)c1` [Example 94, 3-{4-[1-(4-Fluoro-benzyl)-1H-indol-3-yl]-piperidine-1-carbonyl}-benzonitrile], the concentration for half-maximal inhibition (IC50) in assay [1] was 100 to 1000 nM; in assay [2], 100 to 1000 nM; with Gli-luciferase activity (setting [3]) it was 1000 to 10000 nM; with Gli-luciferase activity (setting [4]), 100 to 1000 nM.

`Fc1ccc(Cn2cc(C3CCN(c4ccc(C(F)(F)F)cn4)CC3)c3ccccc32)cc1` [Example 95, 4-[1-(4-Fluoro-benzyl)-1H-indol-3-yl)-5′-trifluoromethyl-3,4,5,6-tetrahydro-2H-[1,2]-bipyridinyl]: the IC50 in assay [1] was 100 to 1000 nM; in assay [2] it was 100 to 1000 nM; in the assay with Gli-luciferase activity (setting [3]), 1000 to 10000 nM; in the assay on Gli-luciferase activity (setting [4]) it was < 100 nM.

Take `N#Cc1ccc(Cn2cc(C3CCN(c4ccc(C(F)(F)F)cn4)CC3)c3ccccc32)cc1` [Example 96]: the IC50 in assay [1] was 100 to 1000 nM; in assay [2], 100 to 1000 nM; in the assay with Gli-luciferase activity (setting [3]), 100 to 1000 nM; in the assay with Gli-luciferase activity (setting [4]) it was < 100 nM.

On to `FC(F)(F)c1ccc(N2CCC(c3cn(Cc4ccccc4)c4ccccc34)CC2)nc1` [Example 97], for which the IC50 in assay [1] was 100 to 1000 nM; in assay [2], 100 to 1000 nM; in the assay with Gli-luciferase activity (setting [3]), 1000 to 10000 nM; in the assay with Gli-luciferase activity (setting [4]), < 100 nM.

Regarding `N#Cc1ccc(N2CCC(c3cn(Cc4ccc(F)cc4)c4ccccc34)CC2)nc1` [Example 98], the IC50 in assay [1] lay within 1000 to 10000 nM; in assay [2], 1000 to 10000 nM; in the assay on Gli-luciferase activity (setting [3]), 1000 to 10000 nM; in the assay on Gli-luciferase activity (setting [4]), 100 to 1000 nM.

Turning to `FC(F)(F)c1ccc(N2CCC(c3cn(Cc4ccc(Br)cc4)c4ccccc34)CC2)nc1` [Example 99], the IC50 in assay [1] is 100 to 1000 nM; in assay [2], 100 to 1000 nM; in the assay with Gli-luciferase activity (setting [3]), 1000 to 10000 nM; in the assay on Gli-luciferase activity (setting [4]) it was 100 to 1000 nM.

On to `N#Cc1ccc(N2CCC(c3cn(Cc4ccccc4)c4ccccc34)CC2)nc1` [Example 100], for which the IC50 in assay [1] is 100 to 1000 nM; in assay [2], 100 to 1000 nM; in the assay on Gli-luciferase activity (setting [3]) it was 1000 to 10000 nM; with Gli-luciferase activity (setting [4]), 100 to 1000 nM.

As for `O=C(c1cccc(F)c1)N1CCC(c2cn(Cc3ccc(F)cc3)c3ccccc23)CC1` [Example 101], the IC50 was 100 to 1000 nM in assay [1], 100 to 1000 nM in assay [2], 10000 to 40000 nM with Gli-luciferase activity (setting [3]) and 100 to 1000 nM with Gli-luciferase activity (setting [4]).

Regarding `N#Cc1ccc(C(=O)N2CCC(c3cn(Cc4ccc(F)cc4)c4ccccc34)CC2)cc1` [Example 102], the IC50 (in assay [1]; in assay [2]; in the assay on Gli-luciferase activity (setting [4])) was 100 to 1000 nM throughout.

In the case of `N#Cc1cccc(C(=O)N2CCC(c3cn(Cc4ccccc4)c4ccccc34)CC2)c1` [Example 103], the IC50 (in assay [1]; in assay [2]; in the assay with Gli-luciferase activity (setting [3]); in the assay on Gli-luciferase activity (setting [4])) was 1000 to 10000 nM each time.

With `O=C(c1ccc(C(F)(F)F)cc1)N1CCC(c2cn(Cc3ccc(F)cc3)c3ccccc23)CC1` [Example 104], the IC50 in assay [1] fell in the range of 1000 to 10000 nM; in assay [2], 1000 to 10000 nM; with Gli-luciferase activity (setting [3]), 10000 to 40000 nM; with Gli-luciferase activity (setting [4]), 1000 to 10000 nM.

As to `O=C(c1ccc(C(F)(F)F)cc1)N1CCC(c2cn(Cc3ccccc3)c3ccccc23)CC1` [Example 105], the IC50 lay within 1000 to 10000 nM in assay [1], 1000 to 10000 nM in assay [2], 10000 to 40000 nM with Gli-luciferase activity (setting [3]) and 1000 to 10000 nM in the assay on Gli-luciferase activity (setting [4]).

Take `c1ccc(Cc2nnc(N3CCN(c4ccccc4)CC3)c3ccccc23)cc1` [Example 106]: the IC50 was 1000 to 10000 nM in assay [1], 1000 to 10000 nM in assay [2], 1000 to 10000 nM in the assay on Gli-luciferase activity (setting [3]) and 100 to 1000 nM in the assay with Gli-luciferase activity (setting [4]).

`CP(C)(=O)c1ccc(N2CCN(c3nnc(Cc4ccccc4)c4ccccc34)CC2)nc1` [Example 107]: the IC50 is 100 to 1000 nM in assay [1], 100 to 1000 nM in assay [2], 100 to 1000 nM in the assay on Gli-luciferase activity (setting [3]) and < 100 nM with Gli-luciferase activity (setting [4]).

`O=C1CN(c2nnc(Cc3ccccc3)c3ccccc23)CCN1c1ccccc1` [Example 108]: the IC50 was in the range of 100 to 1000 nM in assay [1], 100 to 1000 nM in assay [2], 1000 to 10000 nM in the assay on Gli-luciferase activity (setting [3]) and 100 to 1000 nM in the assay on Gli-luciferase activity (setting [4]).

In the case of `OC(c1ccc(N2CCN(c3nnc(Cc4ccccc4)c4ccccc34)CC2)nc1)C(F)(F)F` (stereo not drawn) [Example 109], the IC50 in assay [1] was < 100 nM; in assay [2] it was < 100 nM; with Gli-luciferase activity (setting [3]), 100 to 1000 nM; in the assay on Gli-luciferase activity (setting [4]), < 100 nM.

Take `OC(c1ccc(N2CCN(c3nnc(Cc4ccccc4)c4ccccc34)CC2)nc1)(C(F)(F)F)C(F)(F)F` [Example 110]: the IC50 (in assay [1]; in assay [2]; in the assay with Gli-luciferase activity (setting [3]); in the assay with Gli-luciferase activity (setting [4])) was < 100 nM in each case.

Consider `OC1(c2ccc(N3CCN(c4nnc(Cc5ccccc5)c5ccccc45)CC3)nc2)COC1` [Example 111], for which the IC50 in assay [1] is 100 to 1000 nM; in assay [2] it was < 100 nM; with Gli-luciferase activity (setting [3]) it was 100 to 1000 nM; in the assay with Gli-luciferase activity (setting [4]), < 100 nM.
